{"source": "paper PMC11324527", "about": "“Cryo-EM architecture of a near-native stretch-sensitive membrane microdomain” (Nature, 2024)", "molecules": {"B1": {"name": "Pil1 (native-source eisosome) (natural protein, S. cerevisiae (endogenous in yeast), UniProt P53252 1-339, looked up)", "chain": "MHRTYSLRNSRAPTASQLQNPPPPPSTTKGRFFGKGGLAYSFRRSAAGAFGPELSRKLSQLVKIEKNVLRSMELTANERRDAAKQLSIWGLENDDDVSDITDKLGVLIYEVSELDDQFIDRYDQYRLTLKSIRDIEGSVQPSRDRKDKITDKIAYLKYKDPQSPKIEVLEQELVRAEAESLVAEAQLSNITRSKLRAAFNYQFDSIIEHSEKIALIAGYGKALLELLDDSPVTPGETRPAYDGYEASKQIIIDAESALNEWTLDSAQVKPTLSFKQDYEDFEPEEGEEEEEEDGQGRWSEDEQEDGQIEEPEQEEEGAVEEHEQVGHQQSESLPQQTTA", "notes": "Pil1, BAR-domain eisosome protein of S. cerevisiae; model built up to residue 274 (C-terminal region from residue 275 removed, no density); Stands in the tubules as dimers in a helical lattice; also called Pil1/Lsp1; PIL1_YEAST; source: endogenous, untagged, S. cerevisiae"}, "B2": {"name": "Recombinant Pil1 (natural protein, S. cerevisiae, UniProt P53252 1-339, looked up)", "chain": "MHRTYSLRNSRAPTASQLQNPPPPPSTTKGRFFGKGGLAYSFRRSAAGAFGPELSRKLSQLVKIEKNVLRSMELTANERRDAAKQLSIWGLENDDDVSDITDKLGVLIYEVSELDDQFIDRYDQYRLTLKSIRDIEGSVQPSRDRKDKITDKIAYLKYKDPQSPKIEVLEQELVRAEAESLVAEAQLSNITRSKLRAAFNYQFDSIIEHSEKIALIAGYGKALLELLDDSPVTPGETRPAYDGYEASKQIIIDAESALNEWTLDSAQVKPTLSFKQDYEDFEPEEGEEEEEEDGQGRWSEDEQEDGQIEEPEQEEEGAVEEHEQVGHQQSESLPQQTTA", "notes": "Pil1 of S. cerevisiae, PIL1 cloned into pCoofy6 with primers from the start codon to the stop codon; Vector pCoofy6 (Addgene plasmid 43990) gives 6xHis-Sumo3; the Sumo3 tag was cleaved off with SenP2; It forms dimers in a helical lattice on liposomes; also called purified Pil1; reconstituted Pil1; source: E. coli BL21(DE3)pLysS, purified (HisTrap, HiTrap Q, SenP2 cleavage, Superdex 200); not …"}}, "key": {"[1]": {"target": "T1, Pil1 (recombinant, reconstituted tubules) (Saccharomyces cerevisiae, UniProt P53252)", "T1 construct": "PIL1 in pCoofy6, 6xHis-Sumo3 tag cleaved by SenP2, E. coli BL21(DE3)pLysS; homodimer in helical lattice on lipid tubules; model stops before residue 275", "T1 sequence (P53252 1-339)": "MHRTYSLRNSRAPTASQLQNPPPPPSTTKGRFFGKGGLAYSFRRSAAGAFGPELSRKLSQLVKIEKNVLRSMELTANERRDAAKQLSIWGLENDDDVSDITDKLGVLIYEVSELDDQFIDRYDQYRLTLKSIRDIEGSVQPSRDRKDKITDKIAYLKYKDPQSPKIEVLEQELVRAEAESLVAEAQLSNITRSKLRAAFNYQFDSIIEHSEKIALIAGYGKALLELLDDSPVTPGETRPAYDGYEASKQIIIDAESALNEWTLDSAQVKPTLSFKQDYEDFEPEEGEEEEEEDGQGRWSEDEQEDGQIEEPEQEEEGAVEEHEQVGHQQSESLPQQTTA", "assay": "cryo-EM helical reconstruction of reconstituted tubules", "assay_type": "binding"}, "Pil1–mCherry": {"target": "Pil1–mCherry (Saccharomyces cerevisiae, UniProt P53252)", "conditions": "labelled compound; 1% PI(4,5)P2; PI(4,5)P2-dependent; pH 7.4, 150 mM KoAc, 2 mM MgAc"}, "[2]": {"target": "the molecule itself", "assay": "cryo-EM structure; native-source eisosome tubules isolated from S. cerevisiae with bound plasma membrane bilayer; helical reconstruction of nine tubule types, symmetry expansion and density subtraction; dimers in a helical lattice"}, "[3]": {"target": "the molecule itself", "assay": "cryo-EM structure; 15-20 uM recombinant Pil1 with about 2 mg/ml LUVs of known lipid mixtures, 30 °C for one hour, 20 mM HEPES pH 7.4, 150 mM KoAc, 2 mM MgAc; helical reconstruction; dimers in a helical lattice"}}, "data": [{"molecule": "CCCCCCCC/C=C\\CCCCCCCC(=O)OC[C@H](COP(=O)(O)OC[C@H](N)C(=O)O)OC(=O)CCCCCCC/C=C\\CCCCCCCC", "note": "[DOPS]", "values": [{"measurement": "cryo-EM helical reconstruction of reconstituted tubules", "setting": "[1]; +PI(4,5)P2/+sterol (15% cholesterol) mixture, site R43, K66, R70", "result": "This density accommodates a phosphatidylserine (PS) lipid (DOPS is present in our lipid mixtures)"}]}, {"molecule": "CC1=CC(C)=[N+]2C1=C(CC[C@@H](C)[C@H]1CC[C@H]3[C@@H]4CC=C5C[C@@H](O)CC[C@]5(C)[C@H]4CC[C@]13C)c1c(C)cc(C)n1[B-]2(F)F", "note": "[TF-cholesterol]", "values": [{"measurement": "mobile fraction", "setting": "Pil1–mCherry", "result": "immobilized fraction of cholesterol interacts strongly with Pil1 and/or other lipids bound to the protein"}]}, {"molecule": "CC(C)CCC[C@@H](C)[C@H]1CC[C@H]2[C@@H]3CC=C4C[C@@H](O)CC[C@]4(C)[C@H]3CC[C@]12C", "note": "[cholesterol]", "values": [{"measurement": "cryo-EM helical reconstruction of reconstituted tubules", "setting": "[1]; +PI(4,5)P2/+sterol (15% cholesterol), void pattern below amphipathic helix, sterol not modelled", "result": "this pattern results from the stable association of sterol molecules with the AH"}]}, {"molecule": "B1", "values": [{"measurement": "stoichiometry N", "setting": "[2]", "result": 2}]}, {"molecule": "B2", "values": [{"measurement": "stoichiometry N", "setting": "[3]", "result": 2}]}]}
